Results on 8 compounds are retold here after patent publication US20260109732A1, “LIPID AMINES” (ModernaTX, Inc., priority 2021, published 2026).

Each structure is given as a SMILES string. Counter-ions that a name gives are not always drawn.

A short description of data set [1]: Encapsulation of mRNA nanoparticles with lipid amines using Ribogreen assay. The data set is classed as physicochemical. A digest of the protocol:
(§1)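 Ionizable lipid nanoparticles (IL1:DSPC:cholesterol:PEG-DMG-2K) formed by vortex mixing at pH 4, loaded with luciferase or CFTR mRNA at N:P 4.93, neutralized with TRIS pH 8.12, then modified with lipid amine SA50 at pH 7.5. Particle diameter and PDI read by DLS; mRNA encapsulation by Ribogreen assay.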

Data set [2] concerns HeLa cells. In words: Luciferase Protein Expression Assay in HeLa Cells. The data set is classed as cell-based, Human. The note with it: LNPs encapsulating Luciferase mRNA, 25 ng per well, N=4 wells; 5 h serum-free then 24 h; ONE-Glo. The method, then:
For HeLa studies evaluating luciferase protein expression, PEG-DMG-2K dissolved in a 20 mM TRIS buffer (pH 7.5) is added to the neutralized intermediate nanoparticle solution at a ratio of 1:6, bringing the solution to the final molar ratios of IL1:DSPC:cholesterol:PEG-DMG-2K of 48.5:11.1:38.9:1.5%. This nanoparticle formulation is then modified with lipid amines. In a typical example, nanoparticle formulation at a concentration of 0.18 mg/mL mRNA and a 0.56 mL volume is modified with lipid amine SA50 (467.2 nmol) prepared in buffer containing 20 mM TRIS, 14.3 mM sodium acetate, 32 g/L sucrose and 140 mM NaCl-pH 7.5 at a volumetric ratio of 1:1 of nanoparticle:buffer.
Lipid nanoparticle compositions were prepared in a manner analogous to that in example 2. To evaluate LNP cellular uptake and protein expression In Vitro, HeLa cells from ATCC.org (ATCC CCL-2) are used. The cells are cultured in complete Minimum Essential Medium (MVEM) and are plated in 96 well Cell Carrier Ultra plate with PDL coated surface (PerkinElmer) prior to running an experiment.
Cells were transfected with buffer control (PBS) or LNPs encapsulating Luciferase mRNA (25 ng per well; N=4 replicate wells) in serum-free MEM media. LNP transfected cells were incubated for 5 h, followed by media removal and supplementation with complete MEM media. Cells were further incubated in complete MEM media overnight (24 h). Following the 24 hr incubation, luciferase protein expression was measured using the ONE-Glo™ Luciferase Assay (Promega). Cells were lysed using 1× Passive Lysis Buffer (Cat. #E194A) for 10 min in a microplate mixer at room temperature. Luciferase in the supernatant was measured by adding Luciferase Assay Reagent (Cat. #E151A) containing luciferin. Bioluminescence was then immediately measured on a Synergy H1 plate reader (BioTek). The results shown in Table 3a show the Average Relative Light Units (RLU) of each sample tested.

In data set [3] the test system is HeLa cells. In words: CFTR Protein Expression Assay in HeLa Cells. The data set is classed as cell-based, Human. To be noted: LNPs encapsulating CFTR mRNA, N=4 wells; 5 h serum-free then 24 h; immunofluorescence vs PBS control. A digest of the protocol:
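HeLa cells dosed with CFTR mRNA LNPs (70 mM NaCl final buffer matrix) in serum-free MEM for 5 h, then complete MEM for 24 h. Fixed cells immunostained with anti-CFTR monoclonal and Alexa 488 secondary, imaged confocally; CFTR intensity per cell expressed as fold-change versus PBS buffer control, N=4 wells.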

Data set [4] in a line: Diameter and PDI from DLS measurements of mRNA nanoparticles with lipid amines. The data set is classed as physicochemical. A digest of the protocol:
as §1

Where [5] appears, read: CFTR mRNA nanoparticle with lipid amine.
[6] abbreviates: Luciferase mRNA nanoparticle modified with lipid amine.

Consider `CC(C)CCC[C@@H](C)[C@H]1CC[C@H]2[C@@H]3CC=C4C[C@@H](OC(=O)CN(CCCN)CCCCCCCCN)CC[C@]4(C)[C@H]3CC[C@]12C` [SA71, (3S,8S,9S,10R,13R,14S,17R)-10,13-Dimethyl-17-((R)-6-methylheptan-2-yl)-2,3,4,7,8,9,10,11,12,13,14,15,16,17-tetradecahydro-1H-cyclopenta[a]phenanthren-3-yl N-(8-aminooctyl)-N-(3-aminopropyl)glycinate trihydrochloride], for which the results for the “% Encapsulation (Ribogreen)” value in data set [1] (setting [5]) and in data set [1] (setting [6]) were 99.8% and 99.1%, respectively. The “Average Relative Light Units ± Standard Deviation” value in the data set on HeLa cells [2] stood at 32758.9 ± 5897.1 Relative Light Units. The “Average fold-change in CFTR signal intensity per cell compared to buffer control ± standard deviation” value with HeLa cells [3] was determined as 6.0 ± 0.4 fold-change. For the same compound, the “Diameter (nm)” value was found to be 74.3 nm in data set [4] (setting [5]) and 73 nm in data set [4] (setting [6]). For the same compound, the PDI in data set [4] (setting [5]) came out at 0.12; in data set [4] (setting [6]), 0.15.
As to `CC(C)CCC[C@@H](C)[C@H]1CC[C@H]2[C@@H]3CC=C4C[C@@H](OC(=O)CCC(=O)N(CCCN)CCCCCCCCN)CC[C@]4(C)[C@H]3CC[C@]12C` [SA72, (3S,8S,9S,10R,13R,14S,17R)-10,13-Dimethyl-17-((R)-6-methylheptan-2-yl)-2,3,4,7,8,9,10,11,12,13,14,15,16,17-tetradecahydro-1H-cyclopenta[a]phenanthren-3-yl 4-((8-aminooctyl)(3-aminopropyl)amino)-4-oxobutanoate dihydrochloride], the “% Encapsulation (Ribogreen)” value in data set [1] (setting [5]) is reported as 99.8%; in data set [1] (setting [6]), 99.1%. The “Average Relative Light Units ± Standard Deviation” value in the data set on HeLa cells [2] came out at 30826.5 ± 5913.2 Relative Light Units. In addition, the “Average fold-change in CFTR signal intensity per cell compared to buffer control ± standard deviation” value with HeLa cells [3] was found to be 6.6 ± 0.6 fold-change. Also, the “Diameter (nm)” value in data set [4] (setting [5]) was 73.0 nm; in data set [4] (setting [6]), 72 nm. Further, the PDI in data set [4] (setting [5]) and in data set [4] (setting [6]) was 0.11 in each case.
For the compound `CC(C)CCC[C@@H](C)[C@H]1CC[C@H]2[C@@H]3CC=C4C[C@@H](OC(=O)N(CCCCNCC(C)CN)CC(C)CN)CC[C@]4(C)[C@H]3CC[C@]12C` (stereo partly drawn) [SA75, (3S,8S,9S,10R,13R,14S,17R)-10,13-dimethyl-17-((R)-6-methylheptan-2-yl)-2,3,4,7,8,9,10,11,12,13,14,15,16,17-tetradecahydro-1H-cyclopenta[a]phenanthren-3-yl (3-amino-2-methylpropyl)(4-((3-amino-2-methylpropyl)amino)butyl)carbamate trihydrochloride], the “% Encapsulation (Ribogreen)” value in data set [1] (setting [5]) is 100%; in data set [1] (setting [6]), 98.8%. Also, in the data set with HeLa cells [2], the “Average Relative Light Units ± Standard Deviation” value is listed as 37732.4 ± 6382.7 Relative Light Units. In addition, the “Average fold-change in CFTR signal intensity per cell compared to buffer control ± standard deviation” value in the data set with HeLa cells [3] was 11.9 ± 0.6 fold-change. Moreover, the entries for the “Diameter (nm)” value in data set [4] (setting [5]) and in data set [4] (setting [6]) were 86.9 nm and 74 nm, respectively. For the same compound, the PDI in data set [4] (setting [5]) was 0.11; in data set [4] (setting [6]), 0.16.
With `CC(C)CCC[C@@H](C)[C@H]1CC[C@H]2[C@@H]3CC=C4C[C@@H](OC(=O)N(CCCCNCCC(C)N)CCC(C)N)CC[C@]4(C)[C@H]3CC[C@]12C` (stereo partly drawn) [SA76, (3S,8S,9S,10R,13R,14S,17R)-10,13-dimethyl-17-((R)-6-methylheptan-2-yl)-2,3,4,7,8,9,10,11,12,13,14,15,16,17-tetradecahydro-1H-cyclopenta[a]phenanthren-3-yl (3-aminobutyl)(4-((3-aminobutyl)amino)butyl)carbamate trihydrochloride], the “% Encapsulation (Ribogreen)” value in data set [1] (setting [5]) is listed as 100%; in data set [1] (setting [6]), 98.1%. In addition, the “Average Relative Light Units ± Standard Deviation” value in the data set with HeLa cells [2] stood at 38232.8 ± 4603.5 Relative Light Units. Besides, the “Average fold-change in CFTR signal intensity per cell compared to buffer control ± standard deviation” value with HeLa cells [3] came out at 12.0 ± 1.1 fold-change. In addition, the “Diameter (nm)” value in data set [4] (setting [5]) is 83.9 nm; in data set [4] (setting [6]), 75 nm. Besides, the PDI in data set [4] (setting [5]) is reported as 0.11; in data set [4] (setting [6]), 0.20.
On to `CC(C)CCC[C@@H](C)[C@H]1CC[C@H]2[C@@H]3CC=C4C[C@@H](OC(=O)N(CCCCNCC(C)(C)CN)CC(C)(C)CN)CC[C@]4(C)[C@H]3CC[C@]12C` [SA77, (3S,8S,9S,10R,13R,14S,17R)-10,13-dimethyl-17-((R)-6-methylheptan-2-yl)-2,3,4,7,8,9,10,11,12,13,14,15,16,17-tetradecahydro-1H-cyclopenta[a]phenanthren-3-yl (3-amino-2,2-dimethylpropyl)(4-((3-amino-2,2-dimethylpropyl)amino)butyl)carbamate trihydrochloride], for which the “% Encapsulation (Ribogreen)” value in data set [1] (setting [5]) is given as 100%; in data set [1] (setting [6]) it was 98.2%. Further, the “Average Relative Light Units ± Standard Deviation” value with HeLa cells [2] was found to be 39191.9 ± 4319 Relative Light Units. Moreover, the “Average fold-change in CFTR signal intensity per cell compared to buffer control ± standard deviation” value in the data set on HeLa cells [3] is on record as 12.2 ± 1.3 fold-change. The “Diameter (nm)” value in data set [4] (setting [5]) was determined as 83.9 nm; in data set [4] (setting [6]), 74 nm. In addition, the figures for the PDI in data set [4] (setting [5]) and in data set [4] (setting [6]) were 0.13 and 0.20, respectively.
In the case of `CC(C)CCC[C@@H](C)[C@H]1CC[C@H]2[C@@H]3CC=C4C[C@@H](OC(=O)N(CCCCNCCC(C)(C)N)CCC(C)(C)N)CC[C@]4(C)[C@H]3CC[C@]12C` [SA78, (3S,8S,9S,10R,13R,14S,17R)-10,13-dimethyl-17-((R)-6-methylheptan-2-yl)-2,3,4,7,8,9,10,11,12,13,14,15,16,17-tetradecahydro-1H-cyclopenta[a]phenanthren-3-yl (3-amino-3-methylbutyl)(4-((3-amino-3-methylbutyl)amino)butyl)carbamate trihydrochloride], the “% Encapsulation (Ribogreen)” value in data set [1] (setting [5]) amounted to 100%; in data set [1] (setting [6]) it was 99.8%. The “Average Relative Light Units ± Standard Deviation” value with HeLa cells [2] is given as 14341.8 ± 3497.6 Relative Light Units. In the data set on HeLa cells [3], the “Average fold-change in CFTR signal intensity per cell compared to buffer control ± standard deviation” value came to 11.3 ± 0.7 fold-change. Moreover, the results for the “Diameter (nm)” value in data set [4] (setting [5]) and in data set [4] (setting [6]) were 87.7 nm and 76 nm, respectively. The PDI in data set [4] (setting [5]) is 0.17; in data set [4] (setting [6]) it was 0.20.
For the compound `CC(C)CCC[C@@H](C)[C@H]1CC[C@H]2[C@@H]3CC=C4C[C@@H](OC(=O)N(CCCCNCC(F)(F)CN)CC(F)(F)CN)CC[C@]4(C)[C@H]3CC[C@]12C` [SA79, (3S,8S,9S,10R,13R,14S,17R)-10,13-dimethyl-17-((R)-6-methylheptan-2-yl)-2,3,4,7,8,9,10,11,12,13,14,15,16,17-tetradecahydro-1H-cyclopenta[a]phenanthren-3-yl (3-amino-2,2-difluoropropyl)(4-((3-amino-2,2-difluoropropyl)amino)butyl)carbamate trihydrochloride], the “% Encapsulation (Ribogreen)” value in data set [1] (setting [5]) is 97.9%; in data set [1] (setting [6]), 97.0%. Moreover, in the data set with HeLa cells [2], the “Average Relative Light Units ± Standard Deviation” value stood at 105.1 ± 20 Relative Light Units. In addition, the “Average fold-change in CFTR signal intensity per cell compared to buffer control ± standard deviation” value in the data set with HeLa cells [3] was 0.8 ± 0 fold-change. Also, the “Diameter (nm)” value in data set [4] (setting [5]) is on record as 78.4 nm; in data set [4] (setting [6]), 74 nm. The PDI in data set [4] (setting [5]) stood at 0.13; in data set [4] (setting [6]), 0.18.
With `CC(C)CCC[C@@H](C)[C@H]1CC[C@H]2[C@@H]3CC=C4C[C@@H](OC(=O)N(CCCCCCN)CCCCCCN)CC[C@]4(C)[C@H]3CC[C@]12C` [SA81, (3S,8S,9S,10R,13R,14S,17R)-10,13-Dimethyl-17-((R)-6-methylheptan-2-yl)-2,3,4,7,8,9,10,11,12,13,14,15,16,17-tetradecahydro-1H-cyclopenta[a]phenanthren-3-yl bis(6-aminohexyl)carbamate dihydrochloride], the “% Encapsulation (Ribogreen)” value in data set [1] (setting [5]) is reported as 99.4%; in data set [1] (setting [6]) it was 99.8%. In the data set with HeLa cells [2], the “Average Relative Light Units ± Standard Deviation” value came to 19619.8 ± 4362.6 Relative Light Units. Moreover, the “Average fold-change in CFTR signal intensity per cell compared to buffer control ± standard deviation” value in the data set with HeLa cells [3] turned out to be 4.4 ± 0.3 fold-change. Also, the “Diameter (nm)” value in data set [4] (setting [5]) stood at 87.6 nm; in data set [4] (setting [6]), 72 nm. In addition, the PDI stood at 0.18 in data set [4] (setting [5]) and 0.12 in data set [4] (setting [6]).
